What was measured:
Type in all cases: physicochemical
[1] = Hygroscopicity: water content by TGA after exposure to relative humidity; conditions: for Water content (by TGA): Table 4
Experimental: The TGA analysis was performed with a Mettler M3 thermogravimeter with samples of about 8 mg and a scan rate of 10° C./min from 25° C. to 200° C., subtracting a blank from the sample. The TGA oven was constantly purged with nitrogen gas at a flow rate of 40 ml/min, and standard 150 μl alumina crucibles covered by lids with 1 hole were used.
(§1) TGA analysis determined that this form has a water content of 7.8 percent by weight water.
Fenoldopam Type VI was produced when a mixture of about 50 mg of fenoldopam mesylate Type I, produced in Examples 2 and 4, was exposed to 0 percent relative humidity at room temperature for 8 days.

[2] = Stability under humid conditions: crystalline form by XRD after exposure to relative humidity
Experimental: (§2) X-Ray powder diffraction data were obtained by using methods known in the art with a SCINTAG powder X-Ray diffractometer model X'TRA equipped with a solid-state detector. The X-Ray radiation was copper radiation, having a wavelength of 1.5418 Å. A round aluminum sample holder with zero background was used for the measurements. All peak positions are within ±0.2° 2θ.
as §1
Fenoldopam mesylate Type I was stored at 100 percent relative humidity for 8 days at room temperature. […]

[3] = Stability on drying/heating at 80° under vacuum, crystalline form by XRD; conditions: dried 16 hours at 80° under vacuum; methanesulfonate
Experimental: as §2
An 81.5 gram sample of the product produce in Example 17 was dried for 16 hours at 80° under vacuum, providing a yield of 81.2 grams, having a water content of 0.05 percent by weight, and an isopropanol content of 1620 ppm. An XRD analysis confirmed the product sample was fenoldopam mesylate Type II.
A 4.08 gram sample of the product of Example 22 was dried at 80° C. under vacuum for 16 hours, providing a yield of 3.95 grams, having a water content of 0.02 percent by weight and a methanol content of 766 ppm. An XRD analysis confirmed the product sample was fenoldopam mesylate Type III.

[4] = 100 percent relative humidity, more than about 7 days, room temperature

CS(=O)(=O)O.Oc1ccc(C2CNCCc3c2cc(O)c(O)c3Cl)cc1 (centres unmarked) [Type I, 6-chloro-2,3,4,5-tetrahydro-1-(4-hydroxyphenyl)-[1H]-3-benzazepine-7,8-diol methanesulfonate]
Water content (by TGA) ([1]; 0 % RH, 8 days, room temperature): 0.9
Water content (by TGA) ([1]; 20 % RH, 8 days): 7.9
Water content (by TGA) ([1]; 40 % RH, 8 days): 8.0
Water content (by TGA) ([1]; 60 % RH, 8 days): 7.9
Water content (by TGA) ([1]; 80 % RH, 8 days): 8.0
Water content (by TGA) ([1]; initial): 8.0
Time the crystalline form is stable (remains as the Type I dihydrate) on exposure to relative humidity ([2]; 0 to 100% relative humidity): more than 5 days
Crystalline form (by XRD) ([2]; 20 % RH, 8 days, room temperature): Type I
Crystalline form (by XRD) ([2]; 40 % RH, 8 days, room temperature): Type I
Crystalline form (by XRD) ([2]; 60 % RH, 8 days, room temperature): Type I
Crystalline form (by XRD) ([2]; 80 % RH, 8 days, room temperature): Type I
Crystalline form (by XRD) ([2]; 100 % RH, 8 days, room temperature, methanesulfonate): remains fenoldopam mesylate Type I
Crystalline form (by XRD) ([2]; Table 4, 0 % RH, 8 days, room temperature): Type VI
Crystalline form (by XRD) ([2]; Table 4, 20 % RH, 8 days): Type I
Crystalline form (by XRD) ([2]; Table 4, 40 % RH, 8 days): Type I
Crystalline form (by XRD) ([2]; Table 4, 60 % RH, 8 days): Type I
Crystalline form (by XRD) ([2]; Table 4, 80 % RH, 8 days): Type I
Crystalline form (by XRD) ([2]; Table 4, initial): Type I
Crystalline form (by XRD) ([2]; initial sample): Type I

CS(=O)(=O)O.Oc1ccc(C2CNCCc3c2cc(O)c(O)c3Cl)cc1 (centres unmarked) [Type V, 6-chloro-2,3,4,5-tetrahydro-1-(4-hydroxyphenyl)-[1H]-3-benzazepine-7,8-diol methanesulfonate]
Water content (by TGA) after humidity exposure [1, 4]: 7.8 percent by weight
Crystalline form after humidity exposure (by PXRD) [2, 4]: transforms this form to Type I

CS(=O)(=O)O.Oc1ccc(C2CNCCc3c2cc(O)c(O)c3Cl)cc1 (centres unmarked) [Type III, 6-chloro-2,3,4,5-tetrahydro-1-(4-hydroxyphenyl)-[1H]-3-benzazepine-7,8-diol methanesulfonate]
Crystalline form (by XRD) after drying [3]: Type III
Crystalline form (by XRD) ([2]; Table 3, 80 % RH, 8 days): Type III
Crystalline form (by XRD) ([2]; Table 3, 100 % RH, 8 days): Type III
Crystalline form (by XRD) ([2]; Table 3, initial sample): Type III

CS(=O)(=O)O.Oc1ccc(C2CNCCc3c2cc(O)c(O)c3Cl)cc1 (centres unmarked) [Type II, 6-chloro-2,3,4,5-tetrahydro-1-(4-hydroxyphenyl)-[1H]-3-benzazepine-7,8-diol methanesulfonate, reference compound]
Crystalline form (by XRD) after drying [3]: Type II

From patent US20070066594A1, “Crystalline forms fenoldopam mesylate” (priority 2005, published 2007)
